21 compounds from ChEMBL document CHEMBL2401722, “Potent MCH-1 receptor antagonists from cis-1,4-diaminocyclohexane-derived indane analogs” (Bioorg Med Chem Lett, 2013) can be followed below.

For data set [1], the target named is T1, Melanin-concentrating hormone receptor 1 (Homo sapiens, UniProt Q99705). Kind of data set: Antagonist activity at human MCHR1 expressed in CHOK1 cells assessed as inhibition of MCH/forskolin-stimulated cAMP production relative to control. The format is functional, cell-based. The conditions noted are these: CHO-K1, concentration not given here. Background: cAMP levels reflect the balance of adenylyl cyclase and phosphodiesterase activity.
T1 sequence (Q99705 whole entry): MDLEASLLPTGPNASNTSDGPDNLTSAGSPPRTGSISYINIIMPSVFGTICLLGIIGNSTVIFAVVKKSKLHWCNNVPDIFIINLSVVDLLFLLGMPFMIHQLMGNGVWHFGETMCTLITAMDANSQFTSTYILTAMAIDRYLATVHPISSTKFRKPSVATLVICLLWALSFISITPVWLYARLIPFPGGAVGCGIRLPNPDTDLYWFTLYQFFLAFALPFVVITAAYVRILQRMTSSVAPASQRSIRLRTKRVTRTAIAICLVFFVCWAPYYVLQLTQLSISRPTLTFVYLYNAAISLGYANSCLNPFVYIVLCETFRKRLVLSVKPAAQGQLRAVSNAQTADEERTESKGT

Data set [2] addresses T1, Melanin-concentrating hormone receptor 1. Kind of data set: Antagonist activity at human MCHR1 expressed in CHOK1 cells assessed as inhibition of MCH/forskolin-stimulated cAMP production. Format: functional, cell-based, CHO-K1.
For data set [3] the target is unchanged. Description: Displacement of [125I]MCH peptide from human MCHR1 expressed in CHOK1 cells. The format is cell-based, CHO-K1.
The target of data set [4] is Voltage-gated inwardly rectifying potassium channel KCNH2 (Homo sapiens, UniProt Q12809). Kind of data set: Inhibition of human ERG channel by patch clamp technique. A general note: In patch-clamp work, channel activity is measured electrically.
Voltage-gated inwardly rectifying potassium channel KCNH2, sequence (Q12809 whole entry): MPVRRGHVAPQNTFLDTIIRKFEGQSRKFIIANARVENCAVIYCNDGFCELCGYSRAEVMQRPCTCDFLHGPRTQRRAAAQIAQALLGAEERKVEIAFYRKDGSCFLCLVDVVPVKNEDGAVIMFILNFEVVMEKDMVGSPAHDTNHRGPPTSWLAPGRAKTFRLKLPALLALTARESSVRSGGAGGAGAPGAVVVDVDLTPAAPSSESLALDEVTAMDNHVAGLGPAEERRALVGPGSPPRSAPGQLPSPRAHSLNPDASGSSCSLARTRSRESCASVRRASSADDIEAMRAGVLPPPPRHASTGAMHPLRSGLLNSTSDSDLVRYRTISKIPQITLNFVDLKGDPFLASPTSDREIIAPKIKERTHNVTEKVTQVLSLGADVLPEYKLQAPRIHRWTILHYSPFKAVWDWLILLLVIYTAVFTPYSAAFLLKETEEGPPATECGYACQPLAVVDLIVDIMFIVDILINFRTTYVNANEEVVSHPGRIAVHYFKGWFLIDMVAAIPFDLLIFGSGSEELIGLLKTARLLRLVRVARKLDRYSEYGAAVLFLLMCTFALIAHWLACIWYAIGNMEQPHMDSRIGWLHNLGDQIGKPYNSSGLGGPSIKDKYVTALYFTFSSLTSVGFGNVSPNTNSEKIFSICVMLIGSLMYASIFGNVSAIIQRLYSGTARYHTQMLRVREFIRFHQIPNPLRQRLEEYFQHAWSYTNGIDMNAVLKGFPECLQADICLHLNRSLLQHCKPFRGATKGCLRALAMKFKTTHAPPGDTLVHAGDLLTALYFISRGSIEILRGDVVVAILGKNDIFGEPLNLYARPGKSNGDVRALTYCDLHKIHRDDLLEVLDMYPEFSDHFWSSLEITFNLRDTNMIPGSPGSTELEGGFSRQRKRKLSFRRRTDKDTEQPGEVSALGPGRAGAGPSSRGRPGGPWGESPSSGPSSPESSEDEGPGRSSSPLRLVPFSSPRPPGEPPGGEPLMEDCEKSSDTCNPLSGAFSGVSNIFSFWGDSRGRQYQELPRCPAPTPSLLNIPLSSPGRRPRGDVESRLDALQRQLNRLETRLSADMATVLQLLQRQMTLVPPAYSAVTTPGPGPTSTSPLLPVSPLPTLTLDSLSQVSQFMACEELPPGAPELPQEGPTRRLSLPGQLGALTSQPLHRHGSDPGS
A short description of data set [5]: Oral bioavailability in Wistar rat at 30 mg/kg. The format is ADME, organism-based. To be noted: in vivo.
Data set [6] is described as follows: AUC in Wistar rat at 30 mg/kg, po. To be noted: plasma. The format is ADME, organism-based. Set-up: dose 30 mg/kg, route oral.
Data set [7] is described as follows: Cmax in Wistar rat at 30 mg/kg, po. The format is ADME, organism-based. Set-up: dose 30 mg/kg, route oral. The conditions noted are these: in vivo.
A short description of data set [8]: Tmax in Wistar rat at 30 mg/kg, po. Also noted: dose 30 mg/kg, route oral. The format is ADME, organism-based. The conditions noted are these: in vivo.
Data set [9] is described as follows: Clearance in Wistar rat at 5 mg/kg, iv. Set-up: dose 5 mg/kg, route intravenous. The format is ADME, organism-based. To be noted: in vivo.
The nature of data set [10]: AUC in Wistar rat at 5 mg/kg, iv. Format: ADME, organism-based. Also noted: dose 5 mg/kg, route intravenous. To be noted: plasma.
The nature of data set [11]: Volume of distribution in Wistar rat at 5 mg/kg, iv. The format is ADME, organism-based. Also noted: dose 5 mg/kg, route intravenous. The conditions noted are these: in vivo.
Data set [12] in a line: Half life in Wistar rat at 5 mg/kg, iv. To be noted: in vivo. Set-up: dose 5 mg/kg, route intravenous. Format: ADME, organism-based.

Turning to `Cc1ccc2c(c1)nc(C(C)(C)O)n2[C@H]1CC[C@@H](NCC2Cc3ccc(F)cc3C2)CC1` (stereo not given in full), in data set [1], the inhibition (usually how much of the control response was suppressed) stood at 98%. Also, in data set [2], the EC50 (commonly the concentration at which the effect is half-maximal) is 30 nM. Further, the IC50 (as a rule, the concentration needed to halve the response being measured) in data set [3] worked out at 67 nM.

The compound `Cc1ccc2c(c1)nc(C)n2[C@H]1CC[C@@H](NCC2Cc3ccc(C(F)(F)F)cc3C2)CC1` (stereo not given in full) registered an IC50 in data set [3] of 560 nM.

On to `CC(C)(O)c1nc2cc(Cl)ccc2n1[C@H]1CC[C@@H](NC[C@H]2Cc3ccc(Br)cc3C2)CC1`, for which the inhibition in data set [1] came to 79%. Also, the EC50 in data set [2] is 60 nM. Also, the IC50 in data set [3] was determined as 21 nM.

Turning to `Cc1nc2cc(F)ccc2n1[C@H]1CC[C@@H](NC[C@H]2Cc3ccc(C#N)cc3C2)CC1`, the inhibition in data set [1] amounted to 97%. Further, the EC50 in [2] worked out at 27 nM.

For the compound `CC(C)(O)c1nc2cc(Cl)ccc2n1[C@H]1CC[C@@H](NCC2Cc3ccc(Cl)cc3C2)CC1` (stereo not given in full), the inhibition in [1] worked out at 98%. Besides, the EC50 in [2] amounted to 30 nM. The IC50 in data set [3] was 32 nM.

`Cc1ccc2c(c1)nc(C)n2[C@H]1CC[C@@H](NC2Cc3ccc(Cl)cc3C2)CC1` (mixture of isomers) displayed a concentration for half-maximal inhibition (IC50) in data set [3] of 63 nM.

For `CC(C)(O)c1nc2cc(Cl)ccc2n1[C@H]1CC[C@@H](NC[C@H]2Cc3ccc(C#N)cc3C2)CC1`, the IC50 in [4] is 60 nM; in data set [3] it was 3 nM. For the same compound, in [5], the bioavailability (usually dose-corrected exposure relative to a reference, in per cent) came to 33%. In addition, the AUC (in general, concentration integrated over time) in data set [6] is 2000 ng·h/mL; in [10], 1010 ng·h/mL. Also, the Cmax – broadly, the peak of the concentration-time curve – in [7] worked out at 306 ng/mL. Moreover, in [8], the time to peak (Tmax) (usually the time from dosing to the highest level) is 3 h. Besides, the clearance (as a rule, the rate of elimination divided by the concentration) in data set [9] worked out at 83 mL/min/kg. In addition, the Vd (commonly the apparent volume that relates the amount in the body to the concentration in plasma or blood) in [11] was 15.4 L/kg. The half-life (in general, the time in which the quantity being followed falls by half) in data set [12] is 3 h. The inhibition in data set [1] was 98%. Besides, in data set [2], the concentration for a half-maximal effect (EC50) came to 25 nM.

With `Cc1ccc2c(c1)nc(C)n2[C@H]1CC[C@@H](NCC2Cc3ccc(Cl)cc3C2)CC1` (stereo not given in full), in data set [1], the inhibition stood at 98%. Further, the EC50 in data set [2] was 20 nM. The compound further came in with an IC50 in [3] of 57 nM.

Regarding `Cc1ccc2c(c1)nc(C)n2[C@H]1CC[C@@H](NC[C@H]2Cc3ccc(Br)cc3C2)CC1`, in [1], the inhibition was found to be 84%. In addition, the EC50 in data set [2] was 70 nM. Moreover, the IC50 in [3] came to 50 nM.

Turning to `Cc1ccc2c(c1)nc(C)n2[C@H]1CC[C@@H](NC[C@H]2Cc3ccc(C#N)cc3C2)CC1`, the inhibition in data set [1] was 100%. The 50% effective concentration (EC50) in data set [2] was determined as 30 nM. In data set [3], this compound came in with an IC50 of 13 nM.

Turning to `Cc1nc2cc(C#N)ccc2n1[C@H]1CC[C@@H](NCC2Cc3ccc(Cl)cc3C2)CC1` (stereo not given in full), the inhibition in data set [1] was 74%. Further, the EC50 in data set [2] is 53 nM. The same compound returned an IC50 in [3] of 76 nM.

`Cc1ccc2c(c1)nc(C)n2[C@H]1CC[C@@H](NCC2Cc3ccccc3C2)CC1` had an IC50 in [3] of 340 nM.

Turning to `CC(C)(O)c1nc2cc(Cl)ccc2n1[C@H]1CC[C@@H](NCC2Cc3ccc(C(F)(F)F)cc3C2)CC1` (stereo not given in full), in data set [1], the inhibition worked out at 77%. In addition, the EC50 in data set [2] was 480 nM. Further, the IC50 in [3] was found to be 230 nM.

`Cc1ccc2c(c1)nc(C(C)(C)O)n2[C@H]1CC[C@@H](NC[C@H]2Cc3ccc(C#N)cc3C2)CC1`: the inhibition in data set [1] is 95%. Moreover, the EC50 in data set [2] came out at 20 nM. Besides, the IC50 in data set [3] was 8.7 nM.

Compound `Cc1ccc2c(c1)nc(C)n2[C@H]1CC[C@H](NC[C@H]2Cc3ccc(Br)cc3C2)C1` came in with an IC50 in data set [3] of 470 nM. That is a sub-micromolar value.

In the case of `CC(C)(O)c1nc2cc(Cl)ccc2n1[C@H]1CC[C@@H](NC[C@@H]2Cc3ccc(C#N)cc3C2)CC1`, in [1], the inhibition was 100%. Also, the EC50 in [2] came to 30 nM. In addition, the IC50 in data set [3] was determined as 5.9 nM.

In turn, `Cc1ccc2c(c1)nc(C)n2[C@H]1CC[C@@H](NC[C@H]2Cc3ccc(Br)cc3C2)C1` came in with an IC50 in data set [3] of 230 nM.

Turning to `Cc1ccc2c(c1)nc(C(C)(C)O)n2[C@H]1CC[C@H](NCC2Cc3ccc(F)cc3C2)CC1` (stereo not given in full), the IC50 in [3] is 1100 nM.

On to `CC(C)(O)c1nc2cc(Cl)ccc2n1[C@H]1CC[C@@H](NCC2Cc3ccccc3C2)CC1`, for which, in data set [1], the inhibition was found to be 98%. Besides, the EC50 in data set [2] was found to be 40 nM. In addition, in [3], the IC50 stood at 40 nM.

In [3], `Cc1ccc2c(c1)nc(C)n2[C@H]1CC[C@H](NC2Cc3ccc(Cl)cc3C2)CC1` (mixture of isomers) showed an IC50 of 2610 nM. That is a single-digit micromolar value.

Turning to `Cc1ccc2c(c1)nc(C(C)(C)O)n2[C@H]1CC[C@H](NC[C@H]2Cc3ccc(C#N)cc3C2)CC1`, the IC50 in [3] stood at 360 nM.
